Article PMC8619046, “ABCB1 and ABCG2 Control Brain Accumulation and Intestinal Disposition of the Novel ROS1/TRK/ALK Inhibitor Repotrectinib, While OATP1A/1B, ABCG2, and CYP3A Limit Its Oral Availability” (Pharmaceutics, 2021)
Like-named read-outs stand apart in the source and are kept apart here.

Test system: T1, human ABCG2
T1 construct: expressed in transfected cells; host or cells: MDCK-II cells stably transduced with hABCG2 cDNA (made in the authors' institute)
Assay: Transepithelial transport, MDCK-II cells transduced with hABCG2
Type: in vitro ADME
Conditions: MDCK-II hABCG2, 5 µM, read-out: efflux transport ratio r
Text: Polarized Madin-Darby Canine Kidney (MDCK-II) cells (ECACC 00062107) stably transduced with either human (h) ABCB1, hABCG2 or mouse (m) Abcg2 cDNA were generated in our institute between 1995–2005. The proper identity and functionality, such as highly characteristic growth and drug transporter properties, including inhibitor sensitivity, were regularly checked in these epithelial cells. Mycoplasma routinely tested negative in these cells. The passage number was 10–15 when used in the transport experiments.
Transepithelial transport experiments were performed as previously described with 12-well plates (Transwell 3414, Corning Inc., Kennebunk, ME, USA) containing microporous polycarbonate membrane filters (3.0 µm pore size, 12 mm diameter). […]
After pre-incubation with 5 µM zosuquidar (ABCB1 inhibitor) and/or 5 µM Ko143 (ABCG2/Abcg2 inhibitor) in both compartments (when appropriate) for 1 h, the transport phase was initiated (t = 0) by replacing the medium in apical and basolateral compartments with fresh DMEM with 10% FBS and the appropriate inhibitor(s), and repotrectinib at 5 µM in the donor compartment. […] The active transport ratio r, calculated by dividing the amount of apically directed drug transport by basolaterally directed drug translocation after 8 h, was used to assess active transport of repotrectinib.

## C[C@H]1CNC(=O)c2cnn3ccc(nc23)N[C@H](C)c2cc(F)ccc2O1 [repotrectinib]
pH 7.4, with zosuquidar 5 µM + Ko143 5 µM, + zosuquidar 5 µM + Ko143 5 µM
  efflux ratio at 8 h, 5 µM: 0.95
pH 7.4, with zosuquidar 5 µM, + zosuquidar 5 µM
  efflux ratio at 8 h, 5 µM: 5.6
